Patent publication US8710065B2, “Tricyclic inhibitors of kinases” (AbbVie Inc., priority 2011, dated 2014)

The compounds below were run against T1, GST-tagged-Wee1 kinase (Homo sapiens, UniProt P30291) (assay: Wee1 time-resolved fluorescence equilibrium binding assay (displacement of Oregon Green-labeled ATP-competitive kinase probe)). Conditions: not given.
T1 construct: purchased Carnabio (Carna Biosciences) 05-177
In short: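 Ki values derive from competitive displacement, under equilibrium, of a fast-reversible ATP-site Oregon Green kinase probe from GST-tagged Wee1, detected by time-resolved fluorescence.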

T1 sequence (P30291 whole entry): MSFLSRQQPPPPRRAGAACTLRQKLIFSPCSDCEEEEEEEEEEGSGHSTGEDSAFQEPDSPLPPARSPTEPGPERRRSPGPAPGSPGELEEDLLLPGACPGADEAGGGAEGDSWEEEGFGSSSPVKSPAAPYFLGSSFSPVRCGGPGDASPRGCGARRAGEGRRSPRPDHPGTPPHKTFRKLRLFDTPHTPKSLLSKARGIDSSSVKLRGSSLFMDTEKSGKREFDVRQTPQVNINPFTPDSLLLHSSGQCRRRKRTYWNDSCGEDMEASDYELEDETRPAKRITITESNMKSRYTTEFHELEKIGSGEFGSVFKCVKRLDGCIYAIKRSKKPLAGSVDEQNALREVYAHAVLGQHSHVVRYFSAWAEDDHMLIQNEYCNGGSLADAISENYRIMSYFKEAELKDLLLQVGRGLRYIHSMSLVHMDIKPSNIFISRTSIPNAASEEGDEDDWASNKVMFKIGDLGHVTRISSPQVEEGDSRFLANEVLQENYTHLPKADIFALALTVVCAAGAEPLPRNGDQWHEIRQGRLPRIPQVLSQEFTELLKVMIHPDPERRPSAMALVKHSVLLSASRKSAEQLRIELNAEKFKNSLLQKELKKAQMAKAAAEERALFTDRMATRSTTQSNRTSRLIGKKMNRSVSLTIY

SMILES | Kd
O=C(NCCOCCOCCN1CCN(c2ccc(-c3cc4c(-c5cnc(C6(O)CCC6)s5)c(Cl)cnc4[nH]3)cc2)CC1)c1ccc2c(c1)C(=O)OC21c2cc(F)c(O)cc2Oc2cc(O)c(F)cc21 [fluorescent probe, N-(2-(2-(2-(4-(4-(5-chloro-4-(2-(1-hydroxycyclobutyl)thiazol-5-yl)-1H-pyrrolo[2,3-b]pyridin-2-yl)phenyl)piperazin-1-yl)ethoxy)ethoxy)ethyl)-2′,7′-difluoro-3′,6′-dihydroxy-3-oxo-3H-spiro[isobenzofuran-1,9′-xanthene]-5-carboxamide, reference compound] | 137 nM

Same assay, conditions: read-out: Wee-1 inhibition (Ki)

SMILES | Ki
CN1Cc2cc(Nc3ncc4c(=S)n(-c5ccccc5Cl)c5nccn5c4n3)ccc2C2(CC2)C1 [Example 355, 6-(2-chlorophenyl)-2-[(2′-methyl-2′,3′-dihydro-1′H-spiro[cyclopropane-1,4′-isoquinolin]-7′-yl)amino]imidazo[1,2-a]pyrimido[5,4-e]pyrimidine-5(6H)-thione] | < 10 nM
CC1(C)CN(Cc2ccccc2C#N)Cc2cc(Nc3ncc4c(=O)n(-c5ccccc5Cl)c5nccn5c4n3)ccc21 [Example 356, 2-{[7-{[6-(2-chlorophenyl)-5-oxo-5,6-dihydroimidazo[1,2-a]pyrimido[5,4-e]pyrimidin-2-yl]amino}-4,4-dimethyl-3,4-dihydroisoquinolin-2(1H)-yl]methyl}benzonitrile] | 10 to 100 nM
CCCOc1ccc(CN2Cc3cc(Nc4ncc5c(=O)n(-c6ccccc6Cl)c6nccn6c5n4)ccc3C(C)(C)C2)cc1 [Example 357, 6-(2-chlorophenyl)-2-{[4,4-dimethyl-2-(4-propoxybenzyl)-1,2,3,4-tetrahydroisoquinolin-7-yl]amino}imidazo[1,2-a]pyrimido[5,4-e]pyrimidin-5(6H)-one] | 10 to 100 nM
CC1(C)CN(Cc2cc(F)cc(C(F)(F)F)c2)Cc2cc(Nc3ncc4c(=O)n(-c5ccccc5Cl)c5nccn5c4n3)ccc21 [Example 358, 6-(2-chlorophenyl)-2-({2-[3-fluoro-5-(trifluoromethyl)benzyl]-4,4-dimethyl-1,2,3,4-tetrahydroisoquinolin-7-yl}amino)imidazo[1,2-a]pyrimido[5,4-e]pyrimidin-5(6H)-one] | 10 to 100 nM
C[C@@H]1CCCN1CCc1ccc(Nc2ncc3c(=O)n(-c4ccccc4Cl)c4nccn4c3n2)cc1 [Example 359, 6-(2-chlorophenyl)-2-[(4-{2-[(2R)-2-methylpyrrolidin-1-yl]ethyl}phenyl)amino]imidazo[1,2-a]pyrimido[5,4-e]pyrimidin-5(6H)-one] | 10 to 100 nM
O=c1c2cnc(Nc3ccc(-c4csc(N5CCOCC5)n4)cc3)nc2n2ccnc2n1-c1ccccc1Cl [Example 360, 6-(2-chlorophenyl)-2-({4-[2-(morpholin-4-yl)-1,3-thiazol-4-yl]phenyl}amino)imidazo[1,2-a]pyrimido[5,4-e]pyrimidin-5(6H)-one] | 10 to 100 nM
Cc1ccc2nc(CCc3ccc(Nc4ncc5c(=O)n(-c6ccccc6Cl)c6nccn6c5n4)cc3)ccc2c1 [Example 361, 6-(2-chlorophenyl)-2-({4-[2-(6-methylquinolin-2-yl)ethyl]phenyl}amino)imidazo[1,2-a]pyrimido[5,4-e]pyrimidin-5(6H)-one] | 10 to 100 nM
